{"source": "patent US20240228476A1", "about": "“INHIBITORS OF PROTEIN TYROSINE PHOSPHATASE, COMPOSITIONS, AND METHODS OF USE” (BRISTOL-MYERS SQUIBB COMPANY, priority 2022, published 2024)", "key": {"PTPN2 [1]": {"target": "T1, PTPN2 (Homo sapiens, UniProt P17706)", "T1 sequence (P17706 1-415)": "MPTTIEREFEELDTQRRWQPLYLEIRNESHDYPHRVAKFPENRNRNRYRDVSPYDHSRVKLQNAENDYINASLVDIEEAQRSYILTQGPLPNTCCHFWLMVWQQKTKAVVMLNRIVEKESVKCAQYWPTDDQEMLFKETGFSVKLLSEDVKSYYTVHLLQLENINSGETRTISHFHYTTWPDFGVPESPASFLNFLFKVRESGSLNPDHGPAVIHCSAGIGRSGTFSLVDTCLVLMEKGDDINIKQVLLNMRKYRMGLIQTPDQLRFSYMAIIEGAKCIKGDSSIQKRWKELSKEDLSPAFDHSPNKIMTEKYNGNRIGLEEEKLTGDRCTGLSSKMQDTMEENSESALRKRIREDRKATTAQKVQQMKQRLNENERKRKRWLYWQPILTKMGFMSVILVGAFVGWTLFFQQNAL", "assay": "PTPN2 biochemical assay (PhosphoSens, substrate AQT0264)", "conditions": "PhosphoSens substrate AQT0264 20 μM, room temperature; read-out: PTPN2 BCHEM IC50", "method": "A PhosphoSens® kinase assay was performed as described by the vendor (AssayQuant Technologies, Marlborough, MA). Briefly, 1000× solutions of compounds were prepared in DMSO via serial dilution of the 10 mM DMSO stocks using 3-fold intervals in a 384-well reagent plate. 50 nL of the compound dilution series was then added to the corresponding wells of a 384-well assay plate. 40 mL of 1.25× substrate (AQT0264) in 1× assay buffer (50 mM HEPES pH 7.5, 500 μM EGTA, […] MgCl2, 0.01% Brij-35, 1% Glycerol, 1 mM DTT, and 0.2 mg/mL BSA) was transferred to each well of the assay plate to achieve a final substrate concentration of 20 μM. Finally, […] of 5×PTPN2 enzyme stock was added to each well of the assay plate for a final enzyme concentration of […]. Reaction progress curves were collected by sampling fluorescence intensity at the excitation wavelength 360 nm (λex360) and emission wavelength 480 nm (λem480) every 71 seconds for one hour using a Synergy H4 plate reader (BioTek Instruments/Agilent Technologies, Winooski, VT) at room temperature.\n(§1) For IC50 data, High DDT concentration and/or DiFMUP substrate assays were used; a skilled artisan may use either assay."}, "B16-F10 cells": {"system": "B16-F10 cells", "assay": "Cell proliferation assay (CellTiter-Glo) in B16-F10 cells with IFN-gamma", "assay_type": "cell-based", "conditions": "mouse IFN-gamma 10 ng/mL, read-out: PTPN2 Prolif 5d B16F10 EC50", "method": "B16-F10 cells (ATCC, Manassas, VA, #CRL-6475) were cultured in DMEM growth medium (ThermoFisher Scientific, Waltham, MA, #11995-040) supplemented with 10% heat inactivated FBS (ThermoFisher Scientific, #16140-071) and 1% pen/strep (ThermoFisher Scientific, #15140-122). The cells were seeded into two white opaque 384-well tissue culture treated microplates (PerkinElmer, Waltham, MA, #6007688) at a density of 100 cells/well in 20 uL total volume and incubated overnight at 37 C and 5% CO2. 30 nL of compounds dissolved in DMSO were then transferred from a source plate into target wells with the Echo650 acoustic liquid handler (Beckman Coulter, Indianapolis, IN). Negative control wells received 30 nL of DMSO only (0.15% final concentration). Plates were returned to the incubator for 1 hour and then cells treated with either 5 uL of growth medium or 5 uL of growth medium containing 50 ng/ml of recombinant mouse IFN-gamma protein (R&D Systems, Minneapolis, MN, #485-MI/CF, 10 ng/mL final concentration) using the Assist automated pipetting platform (INTEGRA Biosciences, Hudson, NH). Plates were incubated at 37 C for 4 days and cell proliferation assayed with the CellTiter-Glo reagent (Promega, Madison, WI, #G7573, 25 uL per well). […] Off-target compound mediated cytotoxicity was identified by checking for growth inhibition in the absence of IFNg."}, "PTPN2 [2]": {"target": "T1, PTPN2", "assay": "Phosphatase activity assay using DiFMUP as substrate", "assay_type": "biochemical", "parameters": "purchased MilliporeSigma SRP5075", "conditions": "10 mM DTT, PTPN2 0.15 nM, room temperature, read-out: PTPN2 BCHEM DIFMUP IC50", "method": "The PTPN2 biochemical assay was performed as follows, a 5× stock solution of human PTPN2 (SRP5075, MilliporeSigma, Burlington, MA) and a 1.25× stock solution of DiFMUP (D6567, ThermoFisher Scientific, Waltham, MA), were prepared in 1× reaction buffer consisting of 50 mM HEPES, pH 7.4, 1 mM EDTA, 150 mM NaCl, 0.2 mg/mL BSA, 100 U/mL catalase and 10 mM DTT. […] of the DiFMUP substrate solution, for a final concentration of […] DiFMUP substrate, was added to a Corning 3574 384-well, white, non-binding surface microtiter plate containing […] of serially diluted test compounds prepared in DMSO. The reactions were started with the addition of […] of the enzyme solution, for a final PTPN2 concentration of 0.15 nM, and monitored every 105 seconds for 60 minutes at λEX 360/λEM 460 in a BioTek Synergy HTX plate reader (Agilent Technologies, Santa Clara, CA) at room temperature. The initial linear portions of the progress curves were fit according to a linear equation to yield the slopes and converted to % inhibition based on a value of 100% activity for the no inhibitor treated control. IC50 values of each compound were obtained by fitting the % inhibition-compound concentration curves using Dotmatics software (Dotmatics, Bishops Stortford, Hertfordshire, England)\nas §1"}, "phospho-STAT1 (Tyr701)": {"system": "phospho-STAT1 (Tyr701)", "assay": "Phospho-STAT1 (Tyr701) HTRF assay in B16-F10 cells", "assay_type": "cell-based", "conditions": "mouse IFN-gamma 100 ng/ml, 1 hour, read-out: pSTAT1 HTRF B16 EC50", "method": "B16-F10 cells (ATCC, Manassas, VA, #CRL-6475) were cultured in DMEM growth medium (ThermoFisher Scientific, Waltham, MA, #11995-040) supplemented with 10% heat inactivated FBS (ThermoFisher Scientific, #16140-071) and 1% pen/strep (ThermoFisher Scientific, #15140-122). The cells were seeded into a white opaque 384-well tissue culture treated microplate (PerkinElmer, Waltham, MA, #6007688) at a density of 10,000 cells/well in 20 uL total volume and incubated overnight at 37 C and 5% CO2. 30 nL of compounds dissolved in DMSO were then transferred from a source plate into target wells with the Echo650 acoustic liquid handler (Beckman Coulter, Indianapolis, IN). Negative control wells received 30 nL of DMSO only (0.15% final concentration). Plates were returned to the incubator for 1 hour and then cells treated with either 5 uL of growth medium or 5 uL of growth medium containing 500 ng/ml of recombinant mouse IFN-gamma protein (R&D Systems, Minneapolis, MN, #485-MI/CF, 100 ng/ml final concentration) using the Assist automated pipetting platform (INTEGRA Biosciences, Hudson, NH). Plates were incubated at 37 C for 1 hour and assayed for phosphorylated STAT1 protein levels with the phospho-STAT1 (Tyr701) HTRF kit (Cisbio, Bedford, MA, #63ADK026PEH) according to manufacturer's instructions. HTRF signal intensity was collected with the En Vision 2105 plate reader (PerkinElmer) 24 hours later and analyzed with the Dotmatics software platform to calculate compound IC50 values."}}, "note": "Like-named read-outs stand apart in the source and are kept apart here."}
{"compound": "Cc1cc(NCc2cc(O)c(N3CC(=O)NS3(=O)=O)c(F)c2)nc(C)n1", "note": "[EXAMPLE 17, 5-[4-[[(2,6-dimethylpyrimidin-4-yl)amino]methyl]-2-fluoro-6-hydroxy-phenyl]-1,1-dioxo-1,2,5-thiadiazolidin-3-one]", "values": [{"measurement": "IC50", "setting": "PTPN2 [1]", "result": 20, "unit": "nM"}, {"measurement": "EC50", "setting": "B16-F10 cells; 120 h", "result": 2210, "unit": "nM"}, {"measurement": "IC50", "setting": "PTPN2 [2]", "result": 50, "unit": "nM"}, {"measurement": "EC50", "setting": "phospho-STAT1 (Tyr701)", "result": 1880, "unit": "nM"}]}
{"compound": "Cc1ccnc(C)c1NCc1cc(O)c(N2CC(=O)NS2(=O)=O)c(F)c1", "note": "[EXAMPLE 3, 5-[4-[[(2,4-dimethyl-3-pyridyl)amino]methyl]-2-fluoro-6-hydroxy-phenyl]-1,1-dioxo-1,2,5-thiadiazolidin-3-one]", "values": [{"measurement": "IC50", "setting": "PTPN2 [1]", "result": 90, "unit": "nM"}, {"measurement": "EC50", "setting": "B16-F10 cells; 120 h", "result": 5370, "unit": "nM"}, {"measurement": "IC50", "setting": "PTPN2 [2]", "result": 60, "unit": "nM"}, {"measurement": "EC50", "setting": "phospho-STAT1 (Tyr701)", "result": 6160, "unit": "nM"}]}
{"compound": "6-[[3-fluoro-5-hydroxy-4-(1,1,4-trioxo-1,2,5-thiadiazolidin-2-yl)phenyl]methylamino]-4-methyl-pyridine-3-carbonitrile [EXAMPLE 5]", "values": [{"measurement": "IC50", "setting": "PTPN2 [1]", "result": 20, "unit": "nM"}, {"measurement": "EC50", "setting": "B16-F10 cells", "result": 4760, "unit": "nM"}, {"measurement": "IC50", "setting": "PTPN2 [2]", "result": 20, "unit": "nM"}, {"measurement": "EC50", "setting": "phospho-STAT1 (Tyr701)", "result": 4470, "unit": "nM"}]}
{"compound": "Cc1ncc(C)c(NCc2cc(O)c(N3CC(=O)NS3(=O)=O)c(F)c2)n1", "note": "[EXAMPLE 27, 5-[4-[[(2,5-dimethylpyrimidin-4-yl)amino]methyl]-2-fluoro-6-hydroxy-phenyl]-1,1-dioxo-1,2,5-thiadiazolidin-3-one]", "values": [{"measurement": "IC50", "setting": "PTPN2 [1]", "result": 40, "unit": "nM"}, {"measurement": "EC50", "setting": "B16-F10 cells; 120 h", "result": 10100, "unit": "nM"}, {"measurement": "IC50", "setting": "PTPN2 [2]", "result": 30, "unit": "nM"}, {"measurement": "EC50", "setting": "phospho-STAT1 (Tyr701)", "result": 8600, "unit": "nM"}]}
{"compound": "CC(C)c1cncc(NCc2cc(O)c(N3CC(=O)NS3(=O)=O)c(F)c2)c1", "note": "[EXAMPLE 13, 5-[2-fluoro-6-hydroxy-4-[[(5-isopropyl-3-pyridyl)amino]methyl]phenyl]-1,1-dioxo-1,2,5-thiadiazolidin-3-one]", "values": [{"measurement": "IC50", "setting": "PTPN2 [1]", "result": 10, "unit": "nM"}, {"measurement": "EC50", "setting": "B16-F10 cells; 120 h", "result": 1370, "unit": "nM"}, {"measurement": "IC50", "setting": "PTPN2 [2]", "result": 50, "unit": "nM"}, {"measurement": "EC50", "setting": "phospho-STAT1 (Tyr701)", "result": 930, "unit": "nM"}]}
{"compound": "O=C1CN(c2c(O)cc(CNc3cncc(Cl)c3)cc2F)S(=O)(=O)N1", "note": "[EXAMPLE 8, 5-[4-[[(5-chloro-3-pyridyl)amino]methyl]-2-fluoro-6-hydroxy-phenyl]-1,1-dioxo-1,2,5-thiadiazolidin-3-one]", "values": [{"measurement": "IC50", "setting": "PTPN2 [1]", "result": 20, "unit": "nM"}, {"measurement": "EC50", "setting": "B16-F10 cells; 120 h", "result": 3900, "unit": "nM"}, {"measurement": "IC50", "setting": "PTPN2 [2]", "result": 220, "unit": "nM"}, {"measurement": "EC50", "setting": "phospho-STAT1 (Tyr701)", "result": 2670, "unit": "nM"}]}
{"compound": "CN(C)c1ccc(NCc2cc(O)c(N3CC(=O)NS3(=O)=O)c(F)c2)cn1", "note": "[EXAMPLE 1, 5-[4-[[[6-(dimethylamino)-3-pyridyl]amino]methyl]-2-fluoro-6-hydroxy-phenyl]-1,1-dioxo-1,2,5-thiadiazolidin-3-one]", "values": [{"measurement": "IC50", "setting": "PTPN2 [1]", "result": 20, "unit": "nM"}, {"measurement": "EC50", "setting": "B16-F10 cells; 120 h", "result": 900, "unit": "nM"}, {"measurement": "IC50", "setting": "PTPN2 [2]", "result": 130, "unit": "nM"}, {"measurement": "EC50", "setting": "phospho-STAT1 (Tyr701)", "result": 420, "unit": "nM"}]}
